Results on 93 molecules are retold here after PubChem BioAssay AID463204 (Broad Institute, 2010).

Structures are written as SMILES. The source made the active and inactive calls.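 Rule for the calls: active = AC50 no more than ten times the top concentration tested, that is within one log above it; inconclusive = flat curve fit with activity between 30% and 70%, or invalid poor fit; inactive = AC50 beyond ten times the top tested dose.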

This experiment deals with S. cerevisiae Mot1-301 ts growth rescue, BacTiter-Glo ATP luminescence. Put plainly: growth rescue of Mot1-301 ts yeast, confirmation, SUMOylation pathway inhibitor project, whole organism, S. cerevisiae, Mot1-301 ts mutant, luminescence, dose retest (AID 463204).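 Note: growth at restrictive 38.5 degrees C of Mot1-301 OY566 strain; actives raise luminescence by restoring growth of the ts mutant at high temperature.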

`Cc1nc(-c2ccc(Cl)cc2)sc1C1(C)CC(c2c(Cl)cccc2Cl)=NO1` (stereo not drawn): the AC50 was > 42 µM (inactive).

As to `Cc1c(C(=O)OCC(=O)Nc2ccc(S(N)(=O)=O)cc2)oc2c1ccc1ccccc12`, the AC50 is > 42 µM (inactive). With `CN=C(Nc1cccnc1)c1ccccc1`, the AC50 was > 42 µM (inactive).

As to `Cc1ccsc1C(=O)NCCc1ccc(S(N)(=O)=O)cc1`, the AC50 was > 42 µM (inactive). Consider `O=C(CCCn1cnc([N+](=O)[O-])n1)Nc1cccc2ccccc12`, for which the AC50 is > 42 µM (inactive). With `CCOC(=O)N1CCN(c2cc3[nH]c(=S)[nH]c3cc2F)CC1`, the AC50 was > 42 µM (inactive). For the molecule `COC(=O)c1cc(N=Nc2c(C)[nH]c3ccccc23)cc(C(=O)OC)c1`, the AC50 was > 42 µM (inactive). For the molecule `CCOC(=O)C1(Cc2cccc(OC)c2)CCCN(S(=O)(=O)c2cccnc2)C1` (stereo not drawn), the AC50 is > 42 µM (inactive). Consider `CC(=O)Nc1sc2c(c1C(c1ccc(F)cc1)N1CCOCC1)CCCC2` (stereo not drawn), for which the AC50 was 11.8 µM. On to `COc1ccccc1OCCSc1nc2ccccc2n1CCC(=O)O`, for which the AC50 was > 42 µM (inactive). Then `CCOc1ccc(S(=O)(=O)N2CCC(C(=O)N3CCN(c4ccccc4)CC3)CC2)cc1`, with > 42 µM (inactive); and `CN(C)/C=N/NC(=O)c1ccccc1`, with > 42 µM (inactive). With `C/C(=N\NC(=S)Nc1ccccc1)C1Cc2ccccc2C(=O)O1` (stereo not drawn), the AC50 was > 42 µM (inactive). For the molecule `CS(=O)(=O)N(CC(=O)N1CCN(c2ccccc2F)CC1)C1CCCCC1`, the AC50 is > 42 µM (inactive).

On to `Cc1ccccc1-c1nnnn1C1CCS(=O)(=O)C1` (stereo not drawn), for which the AC50 was > 42 µM (inactive). As to `COc1cccc(C2CC(c3cccc(NS(C)(=O)=O)c3)=NN2C(=O)c2ccccc2)c1OC` (stereo not drawn), the AC50 was > 42 µM (inactive).

`O=C(c1ccccc1F)N1CCCc2ccccc21`: the AC50 was > 42 µM (inactive). For `COc1ccc(Nc2cc(NCCCO)c([N+](=O)[O-])c3nonc23)cc1`, the AC50 was > 42 µM (inactive). As for `Nc1ccc(Oc2ccccc2-c2ccccc2)cc1`, the concentration at half-maximal activity (AC50) is 20.8 µM. `COc1ccc(CCNC(=O)CC2C(=O)NCCN2CC(C)(C)C)cc1` (stereo not drawn): the AC50 is > 42 µM (inactive). With `CN(C(=O)C1CCCO1)c1nnc(-c2cnccn2)s1` (stereo not drawn), the AC50 was > 42 µM (inactive). Then `Cc1ccc(/C(N)=N/OC(=O)/C=C/c2ccccc2)cc1`, with > 42 µM (inactive); and `c1ccc(CNc2ccc3ccccc3n2)nc1`, with > 42 µM (inactive). On to `COc1ccc(-c2noc(CSc3nc(-c4ccccc4)cc(=O)[nH]3)n2)cc1OC`, for which the AC50 was > 42 µM (inactive). For the molecule `O=C(NC1CCCCC1)c1n[nH]c2c1CCCCC2`, the AC50 was > 42 µM (inactive). Turning to `CC(C)CCCN1CCN=C1Nc1ccccc1`, the AC50 was > 42 µM (inactive).

As to `CCCN1CCN(CCCNC(=O)CCn2nc(-c3ccccc3)ccc2=O)CC1`, the AC50 is > 42 µM (inactive). Regarding `COC(=O)CN(C(=S)Nc1ccc(F)cc1)C1CC(=O)N(c2ccccc2)C1=O` (stereo not drawn), the AC50 was > 42 µM (inactive). In the case of `COC(=O)c1ccccc1NC(=O)c1cnn2c(C)cc(C)nc12`, the AC50 was > 42 µM (inactive).

With `On1c(-c2ccccc2Cl)nc2ncccc21`, the AC50 is > 42 µM (inactive). On to `Cc1ccc(N/N=C2/CCCNC2=O)cc1`, for which the AC50 is > 42 µM (inactive). Consider `COc1ccc(/C=C/C(=O)N2CCC(C(N)=O)CC2)cc1S(=O)(=O)N1CCOCC1`, for which the AC50 was > 42 µM (inactive). As to `COc1ccc(-n2c(SCC(=O)NCC3CCCO3)nc3c(c2=O)SCC3)cc1OC` (stereo not drawn), the AC50 was > 42 µM (inactive). On to `Cc1cc(C)n2c(SCC(C)C)nnc2n1`, for which the AC50 is > 42 µM (inactive).

Regarding `COc1ccccc1CSc1ncc(-c2ccc([N+](=O)[O-])cc2)[nH]1`, the AC50 is > 42 µM (inactive). Take `CC(C)(C)CC(=O)Nc1cc(S(=O)(=O)N2CCOCC2)ccc1N1CCCC1`: the AC50 is > 42 µM (inactive). In the case of `S=C(Nc1ccccc1Cl)N1CCOCC1`, the AC50 is > 42 µM (inactive). Consider `COc1ccc(-c2nnc(SCC(C)C)o2)cc1`, for which the half-maximal activity concentration (AC50) was 31.1 µM.

Regarding `CCc1cc(/C(Cc2ccccn2)=N\O)c(O)cc1O`, the AC50 is > 42 µM (inactive). Then `Clc1ccc(CNCc2cccs2)cc1Cl`, with > 42 µM (inactive). Take `COc1ccccc1CNC(=O)CCC(=O)Nc1nnc(C(C)C)s1`: the AC50 was > 42 µM (inactive). Consider `CCc1cc2c(=O)c(-c3ccc(F)cc3)c(C(F)(F)F)oc2cc1OCC(=O)O`, for which the AC50 was > 42 µM (inactive). Then `O=C(Cc1ccc(F)cc1)Nc1nc(-c2ccc(F)cc2)cs1`, with > 42 µM (inactive); and `CCCN(CCC)C(=O)CSc1ncccc1C(=O)O`, with > 42 µM (inactive); and `CCOC(=O)c1c(N)sc(C(=O)N2CCCC(C(N)=O)C2)c1C` (stereo not drawn), with > 42 µM (inactive). As to `Fc1ccc2nc(C3CCN(Cc4nc(CC5CC5)no4)CC3)[nH]c2c1`, the AC50 is > 42 µM (inactive). For the molecule `Cc1nn(C)c(C)c1-c1c(C#N)c(N)nc2c1CCCCCC2`, the AC50 was 16.9 µM. The value for `O=C(Nc1nnc(COc2ccc(F)cc2)s1)c1cccs1` was > 42 µM (inactive); that for `CCOc1ccc(/C=N/NS(=O)(=O)c2ccc(C)cc2)cc1OC` was > 42 µM (inactive). Turning to `Cn1c(SCC(=O)Nc2nnc(-c3ccccc3)o2)nnc1C1CC1`, the AC50 was > 42 µM (inactive). Turning to `COc1cc(C(=O)Oc2cccnc2)cc(OC)c1OC`, the AC50 is > 42 µM (inactive). Take `COc1ccc(OC)c(CCNC(=O)c2ccc3c(c2)N(Cc2ccc(F)cc2)CCS3)c1`: the AC50 was > 42 µM (inactive).

As to `COc1ccccc1CNC(=O)CN(c1ccc(C)cc1)S(=O)(=O)c1c(C)n[nH]c1C`, the AC50 was > 110 µM (inactive). Take `Cc1ccc(S(=O)(=O)NCC(C)n2cncn2)cc1` (stereo not drawn): the AC50 was > 42 µM (inactive).

Turning to `Cc1cccc(NS(=O)(=O)c2ccc3[nH]c(=O)cc(C(=O)O)c3c2)c1`, the AC50 is > 21 µM (inactive).

As for `CC1CC(C)(C)N2C(=O)C3(Nc4ccccc4S3)c3cccc1c32` (stereo not drawn), the concentration at half-maximal activity (AC50) was 3.15 µM. Consider `Cn1cc(Br)c(C(=O)Nc2nccs2)n1`, for which the AC50 is > 42 µM (inactive). With `COc1ccc(S(=O)(=O)Cc2ccc(C(=O)NCc3cccs3)o2)cc1`, the AC50 was > 42 µM (inactive). Take `N=c1c2c(n(Cc3ccc(Cl)c(Cl)c3)c3c1CCC3)CCCC2`: the AC50 is > 42 µM (inactive). `CCN(CC)c1ccc2c(C)c(CN3CCOCC3)c(=O)oc2c1`: the AC50 was > 42 µM (inactive). `Cc1cnc(C(=O)OC(C(=O)c2c[nH]c3ccccc23)c2ccccc2)cn1` (stereo not drawn): the AC50 was 29.4 µM. For the molecule `COC(=O)c1ccccc1N(C)S(C)(=O)=O`, the AC50 was > 42 µM (inactive). The value for `CCCC(=O)NC(C)c1nc2ccccc2[nH]1` (stereo not drawn) was > 42 µM (inactive); that for `CN(CCOc1ccc(Cl)cc1)CC(=O)Nc1ccc(OC(F)F)cc1` was > 42 µM (inactive); that for `Cc1cc(NC(=O)c2ccc(N3C(=O)CCC3=O)cc2)no1` was > 42 µM (inactive).

`CCCCNC(=O)c1ccccc1NC(=O)C1=C(C)OCCS1`: the AC50 is > 42 µM (inactive). The value for `Cn1c(SCC(=O)Nc2ccc(N3CCOCC3)c(Cl)c2)nnc1-c1ccccc1` was > 42 µM (inactive).

As to `COc1ccccc1/C=C/C(=O)c1c2c(c(C)[nH]c1=O)CCCC2`, the AC50 is > 42 µM (inactive).

Regarding `Cc1ccc(Sc2cnccc2C#N)cc1`, the AC50 is > 42 µM (inactive). Take `O=C(CSc1nnc(NC(=O)CN2CCOCC2)s1)Nc1ccccc1`: the AC50 was > 42 µM (inactive).

For the molecule `CS(=O)(=O)N(CC(=O)NCCSCc1ccccc1)c1ccc2c(c1)OCO2`, the AC50 is > 42 µM (inactive). Consider `O=[N+]([O-])c1ccccc1CN1CC=C(c2ccc(F)cc2)CC1`, for which the AC50 is > 42 µM (inactive). Take `O=C(Nc1cccc(Cl)c1)OCc1cncs1`: the AC50 is > 42 µM (inactive). For the molecule `CCCCCCOc1ccc(N2C(=O)CC(N3CCC(C(=O)OCC)CC3)C2=O)cc1` (stereo not drawn), the AC50 is 4.96 µM. Then `O=C(NCCc1cnccn1)C1CCC(=O)N(Cc2ccc(Cl)cc2)C1` (stereo not drawn), with > 42 µM (inactive); and `Cc1cccc(OCCN2CSC(=S)N(C)C2)c1`, with 3.7 µM; and `CCCCOc1ccc(CSC(=N)N)cc1Cl`, with > 42 µM (inactive). On to `Cc1ccc(C)c(C(C)NC(=O)c2ccncc2)c1` (stereo not drawn), for which the AC50 was > 42 µM (inactive). Regarding `Clc1ccc(CSc2nnc(CN3CCOCC3)n2-c2ccccc2)cc1Cl`, the AC50 was > 42 µM (inactive). In the case of `O=C(N/N=C/c1cccs1)c1cncc(Br)c1`, the AC50 was > 42 µM (inactive). On to `NC(=O)c1ccccc1NC(=O)c1ccc2c(c1)OCO2`, for which the AC50 is > 42 µM (inactive).

For the molecule `COc1ccc(C(=O)c2c(C)c3cc(C)ccc3n2CC(O)CN2CCOCC2)cc1` (stereo not drawn), the AC50 is > 21 µM (inactive). With `Cc1[nH]nc2c1C(c1cccs1)C1=C(CC(C)(C)CC1=O)N2` (stereo not drawn), the AC50 was > 42 µM (inactive). `CCN(CC(=O)N1CCCCCC1)S(=O)(=O)c1ccc(Cl)cc1`: the AC50 is > 42 µM (inactive).

Consider `O=C(c1cccnc1)N1CCCC(Nc2ccc(F)cc2)C1` (stereo not drawn), for which the AC50 is > 42 µM (inactive). Consider `Fc1ccc(-c2n[nH]c(=S)n2CC2CCCO2)cc1` (stereo not drawn), for which the AC50 was > 42 µM (inactive). Then `CCOC(=O)C(C)(C)Sc1nc2c(cnn2-c2ccc(C)cc2)c(=O)[nH]1`, with > 42 µM (inactive); and `COc1ccccc1CC(=O)N1CCN(S(=O)(=O)c2ccccc2)CC1`, with > 42 µM (inactive). Turning to `OC(COc1ccccc1)Cn1c2ccccc2c2ccccc21` (stereo not drawn), the half-maximal activity concentration (AC50) was 35.6 µM.

For the molecule `O=C(Nc1ccc([N+](=O)[O-])cn1)C1CC1`, the AC50 was > 42 µM (inactive).

Turning to `O=C(CSc1nc2ccc(Cl)cc2[nH]1)NCc1ccco1`, the AC50 was > 42 µM (inactive). Consider `CC(C)Cc1nc(N2CCOCC2)c(C#N)c2c1CCC2`, for which the AC50 was > 42 µM (inactive).

Turning to `COc1ccc(CCC(=O)Nc2ccc3c(c2)OCO3)cc1`, the AC50 is > 42 µM (inactive).

The AC50 is the concentration giving half of the maximal activity seen.
